Columns and labels:
[1] = system: MCAO rats; test: Cerebral edema and Evans blue / fluorescein sodium leakage, MCAO; assay type: in vivo, rat; conditions: 24 hours
Experimental: After surgery, a mixture solution of EB/NF (0.5%, dissolved in normal saline) of 0.25 ml was immediately (immediately after administration in the administration groups) injected via tail vein in the animals. 24 hours later, a normal saline was perfused in the hearts of the rats to get rid of unbound dye. The rats were decollated and the brain tissues were promptly removed and separated into ischemic hemisphere and non-ischemic hemisphere. The two hemispheres were weighted respectively and homogenated with 7.5% (w/v) trichloroacetic acid (TCA). The homogenate was divided into two parts, in which 1 ml homogenate was adjusted with 52 μl NaOH (5N) to reach a neutral pH value, and 200 μl of it was taken out to determine the fluorescence intensity (excitation 485 nm, emission 535 nm), the NF thereof was determined by using a standard curve made with NF solutions of concentration series. Another part of homogenate was centrifuged for 20 min at 12000 g and 4° C. 200 μl supernatant was taken out to a microplate and its absorbance was determined at 620 nm, and EB thereof was determined by using a standard curve made with EB solutions of concentration series. The results were expressed in form of μg EB (or NF)/g brain wet weight. Percentage of brain edema was expressed as: (brain weight in ischemic hemisphere−brain weight in non-ischemic hemisphere)/brain weight in non-ischemic hemisphere×100%.

[2] = system: cerebral ischemic tissue in MCAO rats; test: Energy metabolism indexes in cerebral ischemic tissue, MCAO; assay type: in vivo, rat; conditions: for increase of energy index relative to the model group: 24 hours of cerebral ischemia; for ADP / AMP / ATP / CrP / Energy Load: cerebral ischemic tissue, MCAO rats
Source text: The obtained r values were respectively rATP=0.9897, rADP=0.9896, rAMP=0.9893, rCrP=0.9981. The recovery rates of 4 kinds of standard materials were respectively (86.6±5.6) %, (94.45±7.5) %, (83.4±6.1) %, (78.69±7.3) %.

[3] = system: NO and TNF-α; test: NO and TNF-α contents in MCAO rats' serum; assay type: in vivo, rat; conditions: 24 hours after ischemia
[4] = system: TNF-α, IL-1β, ICAM-1, VCAM-1, iNOS, AQP-4; test: Expression of TNF-α, IL-1β, ICAM-1, VCAM-1, iNOS and AQP-4 in ischemic cerebral tissue (FIG. 2); assay type: in vivo, rat
Source text: B is a statistic chart that quantifies the expression of TNF-α, IL-1β, ICAM-1, VCAM-1, iNOS and AQP-4 with β-actin as internal standard.
With β-actin as internal standard, the expressions of TNF-α, IL-1β, ICAM-1, VCAM-1, iNOS, AQP-4 were quantified, and the inhibition effects of pinocembrin racemate on the above proteins were seen intuitively.

[5] = system: tMCAO rats; test: Therapeutic time window in focal cerebral ischemia-reperfusion injured rats; assay type: in vivo, rat; conditions: 1 mg/kg, 5 mg/kg; for effect on neurobehavioral injury, infarct volume and cerebral edema: tMCAO rats
Experimental: 1. In the test, transient middle cerebral artery occlusion (tMCAO) model of rats was adopted. The reperfusion was performed after focal cerebral ischemia for 2 hours so as to inspect therapeutic time window of pinocembrin after focal cerebral ischemia. The rats were administered by pinocembrin racemate (1 mg/kg, 5 mg/kg, intravenous injection) after reperfusion 1 hour, 4 hours and 6 hours (i.e., ischemia 3 hour, 6 hours and 8 hours). (R)-pinocembrin and (S)-pinocembrin (1 mg/kg, 5 mg/kg, intravenous injection) were administered after reperfusion 1 hour and 4 hours (i.e., ischemia 3 hour and 6 hours). The therapeutic time windows of these drugs in focal cerebral ischemia were assessed by studying their effects to neurological symptom scores, infarct sizes and brain water contents during 24 hours after tMCAO.
2.4 Experimental Grouping and Administration • Sham operation group (intravenous injection of normal saline after 3 hours of ischemia); • Model group (intravenous injection of 50 mg/kg hydroxypropyl β-cyclodextrin after 3 hours of ischemia); • Nimodipine group (1 mg/kg, administered after 3 hours of ischemia); • Pinocembrin racemate group (1 mg/kg, 5 mg/kg, administered after 3, 6 and 8 hours of ischemia); • (R)-pinocembrin group (1 mg/kg, 5 mg/kg, administered after 3 and 6 hours of ischemia); • (S)-pinocembrin group (1 mg/kg, 5 mg/kg, administered after 3 and 6 hours of ischemia).
First administration was performed by intravenous injection, and intraperitoneal injection was carried out once 12 hours later with a dose 1.5 times of that for intravenous injection.

[6] = in vivo; conditions: SD, rat, iv
[7] = 24 h after ischemia, 3 mg/kg, 10 mg/kg, 30 mg/kg in early stage of ischemia, FIG. 2

Structure (SMILES): O=C1CC(c2ccccc2)Oc2cc(O)cc(O)c21 (racemic) [Pinocembrin racemate, pinocembrin racemate]
- EB leakage (μg/g tissue) ([1]; 3 mg/kg iv): 6.16 ± 0.4 μg/g tissue
- NF leakage (μg/g tissue) ([1]; 3 mg/kg iv): 1.48 ± 0.08 μg/g tissue
- Percentage of brain edema volume (%) ([1]; 3 mg/kg iv, 3 mg/kg): 5.5±1.7%
- EB leakage (μg/g tissue) ([1]; 10 mg/kg iv): 5.03 ± 0.8 μg/g tissue
- NF leakage (μg/g tissue) ([1]; 10 mg/kg iv): 1.39 ± 0.20 μg/g tissue
- Percentage of brain edema volume (%) ([1]; 10 mg/kg iv, 10 mg/kg): 4.1±1.5%
- EB leakage (μg/g tissue) ([1]; 30 mg/kg iv): 4.39 ± 0.4 μg/g tissue
- NF leakage (μg/g tissue) ([1]; 30 mg/kg iv): 1.30 ± 0.15 μg/g tissue
- Percentage of brain edema volume (%) ([1]; 30 mg/kg iv, 30 mg/kg): 3.2±2.1%
- increase of energy index relative to the model group ([2]; first of two values printed for groups 3, 10, 30 mg/kg): 34.6%
- increase of energy index relative to the model group ([2]; second of two values printed for groups 3, 10, 30 mg/kg): 45.8%
- ADP ([2]; 3 mg/kg): 0.31 ± 0.04 µmol/g
- AMP ([2]; 3 mg/kg): 0.02 ± 0.00 µmol/g
- ATP ([2]; 3 mg/kg): 1.18 ± 0.18 µmol/g
- CrP ([2]; 3 mg/kg): 3.98 ± 1.23 µmol/g
- Energy Load ([2]; 3 mg/kg): 0.73 ± 0.23
- ADP ([2]; 10 mg/kg): 0.35 ± 0.06 µmol/g
- AMP ([2]; 10 mg/kg): 0.02 ± 0.00 µmol/g
- ATP ([2]; 10 mg/kg): 1.62 ± 0.21 µmol/g
- CrP ([2]; 10 mg/kg): 4.12 ± 1.25 µmol/g
- Energy Load ([2]; 10 mg/kg): 0.88 ± 0.23
- ADP ([2]; 30 mg/kg): 0.38 ± 0.05 µmol/g
- AMP ([2]; 30 mg/kg): 0.02 ± 0.00 µmol/g
- ATP ([2]; 30 mg/kg): 1.97 ± 0.58 µmol/g
- CrP ([2]; 30 mg/kg): 4.43 ± 1.34 µmol/g
- Energy Load ([2]; 30 mg/kg): 0.96 ± 0.29
- NO ([3]; 3 mg/kg): 109.80 ± 9.38 µmol/L
- TNF-α ([3]; 3 mg/kg): 1163.09 ± 51.12 pg/mL
- NO ([3]; 10 mg/kg): 107.11 ± 9.13 µmol/L
- TNF-α ([3]; 10 mg/kg): 1104.83 ± 48.43 pg/mL
- NO ([3]; 30 mg/kg): 104.75 ± 5.03 µmol/L
- TNF-α ([3]; 30 mg/kg): 1057.48 ± 48.48 pg/mL
- expression of cytokines TNF-α and IL-1β in cerebral ischemia tissue [4, 7]: inhibited the expression of TNF-α, IL-1β in some extents
- expression of iNOS and AQP-4 protein [4, 7]: inhibited the expression of iNOS and AQP-4 protein in some extents
- inhibition of expression of TNF-α, IL-1β, ICAM-1, VCAM-1, iNOS, AQP-4 quantified with β-actin as internal standard ([4]; doses of 10 mg/kg and 30 mg/kg): showed better results
- therapeutic time window ([5]; acute ischemic stroke in rats (tMCAO), iv): about 6 hours
- effect on neurobehavioral injury, infarct volume and cerebral edema ([5]; initially injected after 3 hours of ischemia): significant
- effect on neurobehavioral injury, infarct volume and cerebral edema ([5]; initially injected after 6 hours of ischemia): significant
- LD50 [6]: 491 mg/kg

Source: US20110245334A1, “USE OF RACEMATES OF PINOCEMBRIN IN PREPARING MEDICAMENTS FOR TREATING STROKE” (CSPC Zhonggi Pharmaceutical Technology (Shijiazhuang) Co. …, priority 2008, published 2011)
